Test results: the supplement of paper PMC10307832

Columns and labels:
Test in all cases: relative viability (nuclei count vs DMSO), 5 days (fraction); higher = more cells survive
[1] = compound: C1=CC=C(C(=C1)C2=CC=C(C=C2)C3=CSC4=C3C(=C(C(=O)N4)C#N)O)O + C[C@@H](Oc1cc(-c2cnn(C3CCNCC3)c2)cnc1N)c1c(Cl)ccc(F)c1Cl [Crizotinib] (partner 1 µM)
Method in brief: (§1)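 Lung cancer cell lines were seeded in 1536-well plates and dosed by pin tool the next day, with either a single drug or a fixed anchor-drug dose combined with five library-drug doses (not always all listed) spaced in √10 steps. Five days later, one step fixed the cells and stained their nuclei (final 0.05% Triton X-100, 1% formaldehyde, 1 ug/ml Hoechst), and nuclei were counted on 4× images. Relative viability is the nuclei count in treated wells divided by the count in vehicle wells, and each value is the median of duplicate plates.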

TGX 221 + Palbociclib = compound: CC1=CN2C(=O)C=C(N=C2C(=C1)C(C)NC3=CC=CC=C3)N4CCOCC4 [TGX 221] + CC(=O)c1c(C)c2cnc(Nc3ccc(N4CCNCC4)cn3)nc2n(C2CCCC2)c1=O [Palbociclib] (partner 0.5 µM)
Method in brief: as §1

[2] = compound: O=C(CCCCCCNC(=O)c1cnc(N(c2ccccc2)c2ccccc2)nc1)NO [Ricolinostat] + O=C(CCCCCCC(=O)Nc1ccccc1)NO [Vorinostat] (partner 1 µM)
Method in brief: as §1

Cell Line NCI-H2170 has a relative viability ([1]; first compound 0.08 µM) of 1.13, a relative viability ([1]; first compound 0.253 µM) of 1.34 and a relative viability ([1]; first compound 0.8 µM) of 1.25. It also gave a relative viability ([1]; first compound 2.53 µM) of 1.28, a relative viability ([1]; first compound 8 µM) of 0.888 and a relative viability (TGX 221 + Palbociclib; first compound 0.08 µM) of 0.332. For the same cell line, the relative viability (TGX 221 + Palbociclib; first compound 0.253 µM) was 0.423, the relative viability (TGX 221 + Palbociclib; first compound 0.8 µM) was 0.393 and the relative viability (TGX 221 + Palbociclib; first compound 2.53 µM) was 0.365. For the same cell line, the relative viability (TGX 221 + Palbociclib; first compound 8 µM) was 0.334, the relative viability ([2]; first compound 0.08 µM) was 0.774 and the relative viability ([2]; first compound 0.253 µM) was 0.744. It also gave a relative viability ([2]; first compound 0.8 µM) of 0.737 and a relative viability ([2]; first compound 2.53 µM) of 0.501.
Work on NCI-H2228 yielded a relative viability ([1]; first compound 0.08 µM) of 0.385, a relative viability ([1]; first compound 0.253 µM) of 0.505 and a relative viability ([1]; first compound 0.8 µM) of 0.495. The relative viability ([1]; first compound 2.53 µM) was 0.33, the relative viability ([1]; first compound 8 µM) was 0.392 and the relative viability (TGX 221 + Palbociclib; first compound 0.08 µM) was 0.692. For the same cell line, the relative viability (TGX 221 + Palbociclib; first compound 0.253 µM) was 0.689, the relative viability (TGX 221 + Palbociclib; first compound 0.8 µM) was 0.989 and the relative viability (TGX 221 + Palbociclib; first compound 2.53 µM) was 0.675. The relative viability (TGX 221 + Palbociclib; first compound 8 µM) was 0.719, the relative viability ([2]; first compound 0.08 µM) was 0.896 and the relative viability ([2]; first compound 0.253 µM) was 0.647. The relative viability ([2]; first compound 0.8 µM) was 0.605 and the relative viability ([2]; first compound 2.53 µM) was 0.64.
For NCI-H2347, the relative viability ([1]; first compound 0.08 µM) was 0.717, the relative viability ([1]; first compound 0.253 µM) was 0.807 and the relative viability ([1]; first compound 0.8 µM) was 0.558. For the same cell line, the relative viability ([1]; first compound 2.53 µM) was 0.658, the relative viability ([1]; first compound 8 µM) was 0.687 and the relative viability (TGX 221 + Palbociclib; first compound 0.08 µM) was 0.423. The relative viability (TGX 221 + Palbociclib; first compound 0.253 µM) was 0.427, the relative viability (TGX 221 + Palbociclib; first compound 0.8 µM) was 0.465 and the relative viability (TGX 221 + Palbociclib; first compound 2.53 µM) was 0.391. It also gave a relative viability (TGX 221 + Palbociclib; first compound 8 µM) of 0.415, a relative viability ([2]; first compound 0.08 µM) of 0.449 and a relative viability ([2]; first compound 0.253 µM) of 0.567. The relative viability ([2]; first compound 0.8 µM) was 0.55 and the relative viability ([2]; first compound 2.53 µM) was 0.469.
NCI-H2405 was tested, and the relative viability ([1]; first compound 0.08 µM) was 0.787, the relative viability ([1]; first compound 0.253 µM) was 0.844 and the relative viability ([1]; first compound 0.8 µM) was 0.855. It also gave a relative viability ([1]; first compound 2.53 µM) of 0.812, a relative viability ([1]; first compound 8 µM) of 0.787 and a relative viability (TGX 221 + Palbociclib; first compound 0.08 µM) of 0.482. It also gave a relative viability (TGX 221 + Palbociclib; first compound 0.253 µM) of 0.484, a relative viability (TGX 221 + Palbociclib; first compound 0.8 µM) of 0.504 and a relative viability (TGX 221 + Palbociclib; first compound 2.53 µM) of 0.456. The relative viability (TGX 221 + Palbociclib; first compound 8 µM) was 0.482, the relative viability ([2]; first compound 0.08 µM) was 0.854 and the relative viability ([2]; first compound 0.253 µM) was 1.02. For the same cell line, the relative viability ([2]; first compound 0.8 µM) was 0.379 and the relative viability ([2]; first compound 2.53 µM) was 0.767.
Work on NCI-H3122 yielded a relative viability ([1]; first compound 0.08 µM) of 0.317, a relative viability ([1]; first compound 0.253 µM) of 0.34 and a relative viability ([1]; first compound 0.8 µM) of 0.248. The relative viability ([1]; first compound 2.53 µM) was 0.271, the relative viability ([1]; first compound 8 µM) was 0.302 and the relative viability (TGX 221 + Palbociclib; first compound 0.08 µM) was 0.168. For the same cell line, the relative viability (TGX 221 + Palbociclib; first compound 0.253 µM) was 0.154, the relative viability (TGX 221 + Palbociclib; first compound 0.8 µM) was 0.208 and the relative viability (TGX 221 + Palbociclib; first compound 2.53 µM) was 0.169. It also gave a relative viability (TGX 221 + Palbociclib; first compound 8 µM) of 0.184, a relative viability ([2]; first compound 0.08 µM) of 0.966 and a relative viability ([2]; first compound 0.253 µM) of 0.848. For the same cell line, the relative viability ([2]; first compound 0.8 µM) was 0.853 and the relative viability ([2]; first compound 2.53 µM) was 0.708.
For PC-3 [JPC-3], the relative viability ([1]; first compound 0.08 µM) was 0.986, the relative viability ([1]; first compound 0.253 µM) was 1.12 and the relative viability ([1]; first compound 0.8 µM) was 0.915. The relative viability ([1]; first compound 2.53 µM) was 1, the relative viability ([1]; first compound 8 µM) was 0.891 and the relative viability (TGX 221 + Palbociclib; first compound 0.08 µM) was 0.522. For the same cell line, the relative viability (TGX 221 + Palbociclib; first compound 0.253 µM) was 0.516, the relative viability (TGX 221 + Palbociclib; first compound 0.8 µM) was 0.541 and the relative viability (TGX 221 + Palbociclib; first compound 2.53 µM) was 0.499. For the same cell line, the relative viability (TGX 221 + Palbociclib; first compound 8 µM) was 0.566, the relative viability ([2]; first compound 0.08 µM) was 0.505 and the relative viability ([2]; first compound 0.253 µM) was 0.854. The relative viability ([2]; first compound 0.8 µM) was 0.448 and the relative viability ([2]; first compound 2.53 µM) was 0.669.
For PC-14, the relative viability ([1]; first compound 0.08 µM) was 0.851, the relative viability ([1]; first compound 0.253 µM) was 0.859 and the relative viability ([1]; first compound 0.8 µM) was 0.869. The relative viability ([1]; first compound 2.53 µM) was 1.02, the relative viability ([1]; first compound 8 µM) was 0.907 and the relative viability (TGX 221 + Palbociclib; first compound 0.08 µM) was 0.539. It also gave a relative viability (TGX 221 + Palbociclib; first compound 0.253 µM) of 0.408, a relative viability (TGX 221 + Palbociclib; first compound 0.8 µM) of 0.543 and a relative viability (TGX 221 + Palbociclib; first compound 2.53 µM) of 0.577. For the same cell line, the relative viability (TGX 221 + Palbociclib; first compound 8 µM) was 0.397, the relative viability ([2]; first compound 0.08 µM) was 0.576 and the relative viability ([2]; first compound 0.253 µM) was 0.691. It also gave a relative viability ([2]; first compound 0.8 µM) of 0.593 and a relative viability ([2]; first compound 2.53 µM) of 0.396.
RERF-LC-KJ showed a relative viability ([1]; first compound 0.08 µM) of 0.875, a relative viability ([1]; first compound 0.253 µM) of 0.885 and a relative viability ([1]; first compound 0.8 µM) of 0.858. It also gave a relative viability ([1]; first compound 2.53 µM) of 0.86, a relative viability ([1]; first compound 8 µM) of 0.763 and a relative viability (TGX 221 + Palbociclib; first compound 0.08 µM) of 1.06. It also gave a relative viability (TGX 221 + Palbociclib; first compound 0.253 µM) of 0.979, a relative viability (TGX 221 + Palbociclib; first compound 0.8 µM) of 1.09 and a relative viability (TGX 221 + Palbociclib; first compound 2.53 µM) of 0.905. The relative viability (TGX 221 + Palbociclib; first compound 8 µM) was 0.914, the relative viability ([2]; first compound 0.08 µM) was 0.583 and the relative viability ([2]; first compound 0.253 µM) was 0.657. The relative viability ([2]; first compound 0.8 µM) was 0.639 and the relative viability ([2]; first compound 2.53 µM) was 0.434.
SK-LU-1 was tested, and the relative viability ([1]; first compound 0.08 µM) was 0.895, the relative viability ([1]; first compound 0.253 µM) was 0.995 and the relative viability ([1]; first compound 0.8 µM) was 0.837. The relative viability ([1]; first compound 2.53 µM) was 0.85, the relative viability ([1]; first compound 8 µM) was 0.661 and the relative viability (TGX 221 + Palbociclib; first compound 0.08 µM) was 0.342. The relative viability (TGX 221 + Palbociclib; first compound 0.253 µM) was 0.359, the relative viability (TGX 221 + Palbociclib; first compound 0.8 µM) was 0.357 and the relative viability (TGX 221 + Palbociclib; first compound 2.53 µM) was 0.379. For the same cell line, the relative viability (TGX 221 + Palbociclib; first compound 8 µM) was 0.317, the relative viability ([2]; first compound 0.08 µM) was 0.669 and the relative viability ([2]; first compound 0.253 µM) was 0.613. It also gave a relative viability ([2]; first compound 0.8 µM) of 0.731 and a relative viability ([2]; first compound 2.53 µM) of 0.607.
Work on SK-MES-1 yielded a relative viability ([1]; first compound 0.08 µM) of 1.05, a relative viability ([1]; first compound 0.253 µM) of 1.05 and a relative viability ([1]; first compound 0.8 µM) of 0.905. The relative viability ([1]; first compound 2.53 µM) was 1.05, the relative viability ([1]; first compound 8 µM) was 0.951 and the relative viability (TGX 221 + Palbociclib; first compound 0.08 µM) was 0.304. For the same cell line, the relative viability (TGX 221 + Palbociclib; first compound 0.253 µM) was 0.336, the relative viability (TGX 221 + Palbociclib; first compound 0.8 µM) was 0.308 and the relative viability (TGX 221 + Palbociclib; first compound 2.53 µM) was 0.287. It also gave a relative viability (TGX 221 + Palbociclib; first compound 8 µM) of 0.323, a relative viability ([2]; first compound 0.08 µM) of 0.912 and a relative viability ([2]; first compound 0.253 µM) of 1.03. The relative viability ([2]; first compound 0.8 µM) was 1.07 and the relative viability ([2]; first compound 2.53 µM) was 0.932.
SW 1573 showed a relative viability ([1]; first compound 0.08 µM) of 0.683, a relative viability ([1]; first compound 0.253 µM) of 0.796 and a relative viability ([1]; first compound 0.8 µM) of 0.897. It also gave a relative viability ([1]; first compound 2.53 µM) of 0.797, a relative viability ([1]; first compound 8 µM) of 0.61 and a relative viability (TGX 221 + Palbociclib; first compound 0.08 µM) of 0.299. It also gave a relative viability (TGX 221 + Palbociclib; first compound 0.253 µM) of 0.313, a relative viability (TGX 221 + Palbociclib; first compound 0.8 µM) of 0.39 and a relative viability (TGX 221 + Palbociclib; first compound 2.53 µM) of 0.341. The relative viability (TGX 221 + Palbociclib; first compound 8 µM) was 0.343, the relative viability ([2]; first compound 0.08 µM) was 0.554 and the relative viability ([2]; first compound 0.253 µM) was 0.667. The relative viability ([2]; first compound 0.8 µM) was 0.751 and the relative viability ([2]; first compound 2.53 µM) was 0.49.
With UMC-11 the relative viability ([1]; first compound 0.08 µM) was 0.547, the relative viability ([1]; first compound 0.253 µM) was 0.506 and the relative viability ([1]; first compound 0.8 µM) was 0.574. It also gave a relative viability ([1]; first compound 2.53 µM) of 0.487, a relative viability ([1]; first compound 8 µM) of 0.622 and a relative viability (TGX 221 + Palbociclib; first compound 0.08 µM) of 0.299. It also gave a relative viability (TGX 221 + Palbociclib; first compound 0.253 µM) of 0.328, a relative viability (TGX 221 + Palbociclib; first compound 0.8 µM) of 0.306 and a relative viability (TGX 221 + Palbociclib; first compound 2.53 µM) of 0.338. The relative viability (TGX 221 + Palbociclib; first compound 8 µM) was 0.374, the relative viability ([2]; first compound 0.08 µM) was 0.389 and the relative viability ([2]; first compound 0.253 µM) was 0.377. The relative viability ([2]; first compound 0.8 µM) was 0.265 and the relative viability ([2]; first compound 2.53 µM) was 0.187.
